Values of other authors in patent publication US20070142399A1, “Dual function drugs and uses thereof” (Psychiatric Genomics, Inc., priority 2003, published 2007).

Legend:
D1 receptor = D1 receptor (Homo sapiens, UniProt P21728)
D2 receptor = D2 receptor (Homo sapiens, UniProt P14416)
Chain of D2 receptor (P14416 whole entry): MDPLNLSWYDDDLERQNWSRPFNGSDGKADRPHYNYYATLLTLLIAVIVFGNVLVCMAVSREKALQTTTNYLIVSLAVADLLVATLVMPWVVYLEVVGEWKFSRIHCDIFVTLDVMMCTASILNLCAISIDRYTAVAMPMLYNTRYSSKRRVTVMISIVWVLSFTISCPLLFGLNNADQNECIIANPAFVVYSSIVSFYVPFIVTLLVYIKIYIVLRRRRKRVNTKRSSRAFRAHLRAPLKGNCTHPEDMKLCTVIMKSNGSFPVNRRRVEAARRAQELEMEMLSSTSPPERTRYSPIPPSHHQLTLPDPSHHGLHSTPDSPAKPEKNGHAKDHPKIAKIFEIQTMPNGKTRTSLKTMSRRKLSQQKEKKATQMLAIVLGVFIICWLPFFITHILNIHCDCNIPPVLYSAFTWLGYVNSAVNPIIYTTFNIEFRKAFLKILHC

Chain of D1 receptor (P21728 whole entry): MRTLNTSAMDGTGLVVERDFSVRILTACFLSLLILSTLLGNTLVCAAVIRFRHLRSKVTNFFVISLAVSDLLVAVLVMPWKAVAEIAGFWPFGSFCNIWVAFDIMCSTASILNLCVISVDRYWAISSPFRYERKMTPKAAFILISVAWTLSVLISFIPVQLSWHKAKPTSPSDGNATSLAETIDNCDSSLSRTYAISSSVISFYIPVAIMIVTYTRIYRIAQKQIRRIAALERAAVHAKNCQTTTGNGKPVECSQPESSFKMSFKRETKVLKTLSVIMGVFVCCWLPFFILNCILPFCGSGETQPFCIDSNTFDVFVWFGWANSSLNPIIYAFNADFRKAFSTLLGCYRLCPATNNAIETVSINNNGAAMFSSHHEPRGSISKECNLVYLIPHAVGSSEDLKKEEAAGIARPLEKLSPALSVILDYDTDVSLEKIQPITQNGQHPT

Oc1cc2c(cc1O)CC(NCc1ccccc1)CC2 (centres unmarked) [compound 80]
potency at the D1 receptor as an agonist (D1 receptor): not potent enough
D2 agonist activity (D2 receptor): residual partial D2 agonist activity
